From ChEMBL document CHEMBL6153083, “Synthesis, Structural Modification, and Antismall Cell Lung Cancer Activity of 3-Arylisoquinolines with Dual Inhibitory Activity on Topoisomerase I and II” (J Med Chem, 2025)
Calls of active or inactive are those of the source. The rule behind the calls is not given here.

Key:
[1] = Antiproliferative activity against human NCI-H196 cells incubated for 72 hrs; format: functional, cell-based; conditions: NCI-H196, 72 h
NCI-H446 [2] = assay: Antiproliferative activity against human NCI-H446 cells incubated for 72 hrs; format: functional, cell-based; conditions: NCI-H446, 72 h
NCI-H146 = assay: Antiproliferative activity against human NCI-H146 cells incubated for 72 hrs; format: functional, cell-based; conditions: NCI-H146, 72 h
SHP77 = assay: Antiproliferative activity against human SHP77 cells incubated for 72 hrs; format: functional, cell-based; conditions: SHP77, 72 h
[3] = Antiproliferative activity against human BEAS-2B cells incubated for 72 hrs; format: toxicity, cell-based
NCI-H82 = assay: Antiproliferative activity against human NCI-H82 cells incubated for 72 hrs; format: functional, cell-based; conditions: NCI-H82, 72 h
Homo sapiens = organism: Homo sapiens; assay: Inhibition of Topo II (unknown origin) relaxation activity using pBR322 plasmid DNA as substrate at 25 to 100 uM incubated for 30 mins in presence of ATP; conditions: dose 25-100 µM
NCI-H446 [4] = assay: Induction of DNA damage in human NCI-H446 cells incubated for 48 hrs by comet assay; format: functional, cell-based; conditions: dose 1-8 µM
NCI-H1048 [5] = assay: Induction of DNA damage in human NCI-H1048 cells incubated for 48 hrs by comet assay; format: functional, cell-based; conditions: dose 1-8 µM
NCI-H1048 [6] = assay: Inhibition of cell proliferation in human NCI-H1048 cells incubated for 24 hrs by EdU incorporation assay; format: functional, cell-based; conditions: dose 0.375-3 µM
NCI-H446 [7] = assay: Inhibition of cell migration in human NCI-H446 cells incubated for 24 hrs by transwell assay; format: functional, cell-based; conditions: dose 0.375-3 µM
NCI-H1048 [8] = assay: Inhibition of cell migration in human NCI-H1048 cells incubated for 24 hrs by transwell assay; format: functional, cell-based; conditions: dose 0.375-3 µM
NCI-H446 [9] = assay: Inhibition of cell invasion in human NCI-H446 cells incubated for 24 hrs by transwell assay; format: functional, cell-based
NCI-H1048 [10] = assay: Inhibition of cell invasion in human NCI-H1048 cells incubated for 24 hrs by transwell assay; format: functional, cell-based
NCI-H446 [11] = assay: Inhibition of cell migration in human NCI-H446 cells incubated for 24 hrs by wound-healing assay; format: functional, cell-based; conditions: dose 0.375-3 µM
NCI-H1048 [12] = assay: Inhibition of cell migration in human NCI-H1048 cells incubated for 24 hrs by wound-healing assay; format: functional, cell-based; conditions: dose 0.375-3 µM
NCI-H1048 [13] = assay: Induction of cell cycle arrest in human NCI-H1048 cells assessed as accumulation at S phase incubated for 48 hrs by PI staining based flow cytometry; format: functional
NCI-H446 [14] = assay: Induction of apoptosis in human NCI-H446 cells assessed as reduction in cell viability incubated for 48 hrs by Geimsa staining based analysis; format: functional; conditions: dose 1-8 µM
NCI-H1048 [15] = assay: Induction of apoptosis in human NCI-H1048 cells assessed as reduction in cell viability incubated for 48 hrs by Geimsa staining based analysis; format: functional
NCI-H446 [16] = assay: Induction of apoptosis in human NCI-H446 cells assessed as chromatin condensation at 1 to 8 uM incubated for 48 hrs by Geimsa staining based analysis; format: functional, cell-based; conditions: dose 1-8 µM
NCI-H446 [17] = assay: Induction of apoptosis in human NCI-H446 cells assessed as increase in Bax level incubated for 48 hrs by Western blot analysis; format: functional, cell-based; conditions: dose 1-8 µM
NCI-H446 [18] = assay: Induction of apoptosis in human NCI-H446 cells assessed as increase in cleaved caspase-9 level incubated for 48 hrs by Western blot analysis; format: functional, cell-based; conditions: dose 1-8 µM
NCI-H1048 [19] = assay: Induction of apoptosis in human NCI-H1048 cells assessed as decrease in Bcl-2 level incubated for 48 hrs by Western blot analysis; format: functional, cell-based
NCI-H1048 [20] = assay: Induction of apoptosis in human NCI-H1048 cells assessed as increase in Bax level incubated for 48 hrs by Western blot analysis; format: functional, cell-based
NCI-H1048 [21] = assay: Induction of apoptosis in human NCI-H1048 cells assessed as increase in cleaved caspase-3 level incubated for 48 hrs by Western blot analysis; format: functional, cell-based
NCI-H1048 [22] = assay: Induction of apoptosis in human NCI-H1048 cells assessed as increase in cleaved caspase-9 level incubated for 48 hrs by Western blot analysis; format: functional, cell-based
[23] = Inhibition of PI3K/AKT/mTOR signalling pathway in human NCI-H446 cells assessed as decrease in AKT level at 1 to 8 uM incubated for 48 hrs by Western blot analysis; format: cell-based; conditions: dose 1-8 µM
[24] = Inhibition of PI3K/AKT/mTOR signalling pathway in human NCI-H446 cells assessed as decrease in mTOR level at 1 to 8 uM incubated for 48 hrs by Western blot analysis; format: cell-based; conditions: dose 1-8 µM
[25] = Cmax in Sprague-Dawley rat at 10 mg/kg, ip measured after 24 hrs by LC-MS/MS analysis; format: ADME, organism-based; conditions: in vivo
[26] = Tmax in Sprague-Dawley rat at 10 mg/kg, ip measured after 24 hrs by LC-MS/MS analysis; format: ADME, organism-based; conditions: in vivo
[27] = Half life in Sprague-Dawley rat at 10 mg/kg, ip measured after 24 hrs by LC-MS/MS analysis; format: ADME, organism-based; conditions: in vivo
[28] = AUC (0 to t) in Sprague-Dawley rat at 10 mg/kg, ip measured after 24 hrs by LC-MS/MS analysis; format: ADME, organism-based; conditions: in vivo
[29] = AUC (0 to infinity) in Sprague-Dawley rat at 10 mg/kg, ip measured after 24 hrs by LC-MS/MS analysis; format: ADME, organism-based; conditions: in vivo
[30] = MRT (0 to infinity) in Sprague-Dawley rat at 10 mg/kg, ip measured after 24 hrs by LC-MS/MS analysis; format: ADME, organism-based; conditions: in vivo
[31] = Acute toxicity in Kunming mouse assessed as animal death at 400 mg/kg, ip; format: organism-based; conditions: in vivo
[32] = Acute toxicity in Kunming mouse assessed as lethal dose; conditions: in vivo
[33] = Acute toxicity in Kunming mouse assessed as change in body weight at 300 mg/kg, ip measured for 10 days; format: organism-based; conditions: in vivo, 240 h, time 10 day
NCI-H446 [34] = assay: Antitumor activity against human NCI-H446 cells xenografted in BALB/c nude mouse at 10 mg/kg, ip for 21 days relative to control; format: functional; conditions: NCI-H446, 504 h, time 21 day, read-out: TGI
NCI-H446 [35] = assay: Antitumor activity against human NCI-H446 cells xenografted in BALB/c nude mouse at 20 mg/kg, ip for 21 days relative to control; format: functional; conditions: NCI-H446, 504 h, time 21 day, read-out: TGI
NCI-H446 [36] = assay: Antitumor activity against human NCI-H446 cells xenografted in BALB/c nude mouse assessed as decrease in tumor volume at 10 to 20 mg/kg, ip for 21 days; format: functional, organism-based; conditions: dose 10-20 mg/kg, time 21.0 day
[37] = Toxicity in BALB/c nude mouse xenografted with human NCI-H446 cells assessed as body weight change at 10 to 20 mg/kg, ip for 21 days; format: organism-based; conditions: in vivo, 504 h, dose 10-20 mg/kg, time 21 day
[38] = Toxicity in BALB/c nude mouse xenografted with human NCI-H446 cells assessed as deleterious effect in heart at 10 to 20 mg/kg, ip for 21 days by H and E staining based analysis; format: organism-based; conditions: in vivo, 504 h, dose 10-20 mg/kg, time 21 day
[39] = Toxicity in BALB/c nude mouse xenografted with human NCI-H446 cells assessed as deleterious effect in liver at 10 to 20 mg/kg, ip for 21 days by H and E staining based analysis; format: organism-based; conditions: in vivo, 504 h, dose 10-20 mg/kg, time 21 day
[40] = Toxicity in BALB/c nude mouse xenografted with human NCI-H446 cells assessed as deleterious effect in lungs at 10 to 20 mg/kg, ip for 21 days by H and E staining based analysis; format: organism-based; conditions: in vivo, 504 h, dose 10-20 mg/kg, time 21 day

Which results are given for `CC1CC(C)CN(Cc2cc3c(cc2-c2cc4ccc5c(c4cn2)OCO5)OCO3)C1` (centres undefined)?
IC50 [1]: 9.51 µM; IC50 (NCI-H446 [2]): 1.3 µM; IC50 (NCI-H146): 22.8 µM; IC50 (SHP77): 7.92 µM; IC50 at 72 h [3]: 27.5 µM; IC50 (NCI-H82): 2.25 µM; inhibition (Homo sapiens): Active; Exhibited Stronger Activity Against Topo Ii Compared To Topo I; Activity (NCI-H446 [4]): Dose-dependent-effect; Activity (NCI-H1048 [5]): Dose-dependent-effect; inhibition (NCI-H1048 [6]): Dose-dependent-effect; Compound Effect Surpassed Etoposide Effect; inhibition (NCI-H446 [7]): Dose-dependent-effect; Displayed Stronger Inhibitory Effect Than Etoposide; inhibition (NCI-H1048 [8]): Dose-dependent-effect; Displayed Stronger Inhibitory Effect Than Etoposide; inhibition (NCI-H446 [9]): Dose-dependent-effect; Displayed Stronger Inhibitory Effect Than Etoposide; inhibition (NCI-H1048 [10]): Dose-dependent-effect; Displayed Stronger Inhibitory Effect Than Etoposide; inhibition (NCI-H446 [11]): Dose-dependent-effect; Exhibited Superior Inhibitory Effect Compared To Etoposide At Same Concentration; inhibition (NCI-H1048 [12]): Dose-dependent-effect; Exhibited Superior Inhibitory Effect Compared To Etoposide At Same Concentration; Activity (NCI-H1048 [13]): Dose-dependent-effect; Activity (NCI-H446 [14]): Dose-dependent-effect; Activity (NCI-H1048 [15]): Dose-dependent-effect; Activity (NCI-H446 [16]): Active; Activity (NCI-H446 [17]): Dose-dependent-effect; Activity (NCI-H446 [18]): Dose-dependent-effect; Activity (NCI-H1048 [19]): Dose-dependent-effect; Activity (NCI-H1048 [20]): Dose-dependent-effect; Activity (NCI-H1048 [21]): Dose-dependent-effect; Activity (NCI-H1048 [22]): Dose-dependent-effect; inhibition [23]: Active; inhibition [24]: Active; Cmax [25]: 145 ng/mL; Tmax [26]: 0.25 h; half-life [27]: 3.38 h; AUC(0-t) at 24 h [28]: 736 ng·h/mL; AUC(0-inf) [29]: 741 ng·h/mL; MRT inf [30]: 5.19 h; Activity [31]: Toxic; LD50 [32]: 300 mg/kg; Activity [33]: Non-toxic; inhibition in vivo at 10 mg/kg (NCI-H446 [34]): 75.2%; inhibition in vivo at 20 mg/kg (NCI-H446 [35]): 82.2%; Activity (NCI-H446 [36]): Active; Exhibited Markedly Slow Growth Rate; Activity [37]: Non-toxic; Activity [38]: Non-toxic; Activity [39]: Non-toxic; Activity [40]: Non-toxic
